The results in this text go back to patent US9078442B2, “Herbicidally and fungicidally active 3-phenylisoxazoline-5-carboxamides and 3-phenylisoxazoline-5-thioamides” (BAYER INTELLECTUAL PROPERTY GMBH, priority 2011, dated 2015).

For one test, the system named is Peronospora parasitica. In words: In vivo test Peronospora parasitica (downy mildew on cabbage), protective. Particulars: evaluation 5 days after infection. The method, then:
In vivo test Peronospora parasitica (downy mildew on cabbage) To prepare an appropriate active compound formulation, the active compound is mixed with acetone/Tween/DMSO and the mixture is diluted with water to the desired concentration. Cabbage plants are cultivated in 50/50 peat/pozzolan soil in small pots at 18-20° C. and sprayed at the cotyledon stage at the respective stated application rates to test for protective activity. Control plants were treated in the same manner, but using an aqueous solution without any active compounds. 24 hours after the spraying, the plants were sprayed with a spore suspension of Peronospora parasitica (50 000 spores/ml). The plants were placed in a cabin at 20° C. in a humid atmosphere for 5 days.

A further test deals with Alternaria brassicae. In words: In vivo test Alternaria brassicae (salad radish). Particulars: Alternaria brassicae on salad radish, application rate not given, evaluation 6-7 days after inoculation. Set-up: concentration or dose not given beside the values. The method, then: Salad radish (cultivar Pernot) are cultivated in 50/50 peat pozzolan substrate at 18-20° C. and sprayed at the cotyledon stage with the active compound preparation given above. After 24 hours, the plants are sprayed with a spore suspension of Alternaria brassicae (40 000 spores/cm3). The inoculated plants are placed at 18° C. and in a humid atmosphere for 6-7 days. […] At an application rate of g/ha, the following efficacies are found for the following compounds.

Another test relates to Botrytis cinerea. In words: In vivo test Botrytis cinerea (gray mold on cucumbers). Particulars: Botrytis cinerea on cucumber, evaluation 5-7 days after infection. As to the method:
Cucumber plants (Vert petit de Paris) are cultivated in 50/50 peat pozzolan substrate at 20-25° C. and sprayed at the Z16 stage with the active compound preparation given in Example 1. After 24 hours, the upper sides of the leaves of the plants are sprayed with a spore suspension of Botrytis cinerea (150 000 spores/ml). The spores of a 15-day old culture are collected and suspended in a nutrient solution consisting of • 20 g/l of gelatin; • 50 g/l of D-fructose; • 2 g/l of NH4NO3; • 1 g/L of KH2PO4. The inoculated cucumber plants are placed at 15-11° C. (day/night) and at 80% relative atmospheric humidity for 5-7 days.

The next test relates to Sphaerotheca fuliginea. In words: In vivo test Sphaerotheca fuliginea (cucumber). The note with it: Sphaerotheca fuliginea on cucumber, evaluation 12 days after inoculation. As to the method:
Cucumber plants (cultivar: Vert petit de Paris) are cultivated in 50/50 peat pozzolan substrate at 20/23° C. and sprayed at the cotyledon stage with the active compound preparation given in Example A. After 24 hours, the plants are sprayed with a spore suspension of Sphaerotheca fuliginea (100 000 spores/ml).

Test [1] has as its system Mycosphaerella graminicola. Nature of the test: In vivo test Mycosphaerella graminicola (wheat). The note with it: Mycosphaerella graminicola on wheat, evaluation 21-28 days after inoculation. As to the method:
Wheat plants (cultivar: (Scipion) are cultivated in 50/50 peat pozzolan substrate at 12° C. and sprayed at the 1-leaf stage with the active compound preparation as given in Example A. After 24 hours, the plants are sprayed with a spore suspension of Mycosphaerella graminicola (500 000 spores/ml).

The next test relates to Phytophthora infestans. Type of test: in vivo. The note with it: Phytophthora infestans on tomato, application rate 1200 g/ha, evaluation 5 days after infection.
The next test concerns Leptosphaeria nodorum. Nature of the test: In vivo test Leptosphaeria nodorum (wheat). Particulars: Leptosphaeria nodorum on wheat, application rate 1200 g/ha, evaluation 15-17 days after inoculation. As to the method: Wheat plants (cultivar: (Scipion) are cultivated in 50/50 peat pozzolan substrate at 12° C. and sprayed at the 1-leaf stage with the active compound preparation as given in Example A. After 24 hours, the plants are sprayed with a spore suspension of Leptosphaeria nodorum (250 000 spores/ml).

Turning to `CCC(C)NC(=O)C1(C)CC(c2cc(Cl)cc(Cl)c2)=NO1` (mixture of isomers) [Example 6.217], the “Activity [%] (efficacy)” value with Peronospora parasitica (application rate 1200 g/ha) stood at 100%; in the test with Alternaria brassicae, 81%; with Botrytis cinerea (application rate 1200 g/ha), 100%.
Consider `C#CC(C)NC(=O)C1(C)CC(c2cc(Cl)cc(Cl)c2)=NO1` (single isomer, unassigned) [Example 6.216], for which the “Activity [%] (efficacy)” value was 75% in the test on Peronospora parasitica (application rate 500 g/ha) and 82% in the test with Alternaria brassicae.
On to `Cc1c(NC(=O)C2(C)CC(c3cc(F)cc(F)c3)=NO2)cnn1C` (stereo not drawn) [Example 1.007], for which the “Activity [%] (efficacy)” value in the test on Sphaerotheca fuliginea (application rate 500 g/ha) was 75%; in test [1] (application rate 500 g/ha), 73%.
Regarding `Cc1cc(CNC(=O)C2(C)CC(c3cc(Cl)cc(Cl)c3)=NO2)n(C)n1` (stereo not drawn) [Example 1.122], the entries for the “Activity [%] (efficacy)” value (in the test with Peronospora parasitica (application rate 500 g/ha); in the test on Sphaerotheca fuliginea (application rate 500 g/ha); in test [1] (application rate 500 g/ha)) were 100%, 72% and 75%, respectively.
For `CCn1cc(CNC(=O)C2(C)CC(c3cc(C)cc(C)c3)=NO2)c(C)n1` (stereo not drawn) [Example 1.194], the “Activity [%] (efficacy)” value stood at 100% in the test with Peronospora parasitica (application rate 1200 g/ha), 100% with Phytophthora infestans, 88% in test [1] (application rate 1200 g/ha) and 95% in the test with Botrytis cinerea (application rate 1200 g/ha).
`CCn1cc(CNC(=O)C2(C)CC(c3cccc(Cl)c3)=NO2)c(C)n1` (stereo not drawn) [Example 1.195]: the “Activity [%] (efficacy)” value in the test with Peronospora parasitica (application rate 1200 g/ha) came to 100%; in the test with Phytophthora infestans it was 100%; in test [1] (application rate 500 g/ha), 79%.
`CCn1cc(CNC(=O)C2(C)CC(c3cc(F)cc(Cl)c3)=NO2)c(C)n1` (stereo not drawn) [Example 1.197]: the “Activity [%] (efficacy)” value in the test on Peronospora parasitica (application rate 1200 g/ha), in the test on Phytophthora infestans and in the test on Sphaerotheca fuliginea (application rate 1200 g/ha) was 100% throughout.
In the case of `CCn1cc(CNC(=O)C2(C)CC(c3cc(Cl)cc(Cl)c3)=NO2)c(C)n1` (stereo not drawn) [Example 1.222], the “Activity [%] (efficacy)” value with Peronospora parasitica (application rate 500 g/ha) is 100%; in the test on Phytophthora infestans, 100%; in test [1] (application rate 1200 g/ha), 96%.
Turning to `Cn1cc(CNC(=O)C2(C)CC(c3cc(Cl)cc(Cl)c3)=NO2)cn1` (stereo not drawn) [Example 1.285], the figures for the “Activity [%] (efficacy)” value (with Peronospora parasitica (application rate 500 g/ha); in the test with Sphaerotheca fuliginea (application rate 500 g/ha); in test [1] (application rate 500 g/ha)) were 100%, 89% and 75%, respectively.
With `CCCn1cc(CNC(=O)C2(C)CC(c3cc(Cl)cc(Cl)c3)=NO2)c(C)n1` (stereo not drawn) [Example 1.374], the “Activity [%] (efficacy)” value with Peronospora parasitica (application rate 1200 g/ha) is reported as 100%; in the test on Phytophthora infestans, 100%; with Sphaerotheca fuliginea (application rate 1200 g/ha) it was 99%; with Botrytis cinerea (application rate 1200 g/ha) it was 98%.
Regarding `CCn1cc(CNC(=O)C2(CC)CC(c3cc(Cl)cc(Cl)c3)=NO2)cn1` (stereo not drawn) [Example 2.136], the “Activity [%] (efficacy)” value in the test with Peronospora parasitica (application rate 1200 g/ha) was 100%; in the test on Phytophthora infestans, 90%; in test [1] (application rate 1200 g/ha) it was 88%.
`CCn1cc(CNC(=O)C2(C3CC3)CC(c3cc(Cl)cc(Cl)c3)=NO2)c(C)n1` (stereo not drawn) [Example 5.018]: the “Activity [%] (efficacy)” value stood at 100% with Peronospora parasitica (application rate 500 g/ha), 75% in the test with Phytophthora infestans and 88% in test [1] (application rate 1200 g/ha).
In the case of `COCCCCNC(=O)C1(C)CC(c2cc(Cl)cc(Cl)c2)=NO1` (stereo not drawn) [Example 6.006], the results for the “Activity [%] (efficacy)” value with Peronospora parasitica (application rate 1200 g/ha), in the test with Phytophthora infestans and with Leptosphaeria nodorum were 100%, 70% and 100%, respectively.
Turning to `CC1(C(=O)NC2CC2)CC(c2cc(Cl)cc(Cl)c2)=NO1` (stereo not drawn) [Example 6.054], the “Activity [%] (efficacy)” value with Alternaria brassicae is 94%; in test [1] (application rate 500 g/ha) it was 100%.
As to `CC1(C(=O)NC2CC2)CC(c2cc(Cl)cc(Br)c2)=NO1` (stereo not drawn) [Example 6.064], the entries for the “Activity [%] (efficacy)” value (in the test with Alternaria brassicae; in test [1] (application rate 500 g/ha)) were 91% and 100%, respectively.
Turning to `CC(C)(C)NC(=O)C1(C)CC(c2cc(Cl)cc(Cl)c2)=NO1` (stereo not drawn) [Example 6.117, N-tert-butyl-3-(3,5-dichlorophenyl)-5-methyl-4,5-dihydro-1,2-oxazole-5-carboxamide], the “Activity [%] (efficacy)” value turned out to be 92% in the test with Peronospora parasitica (application rate 500 g/ha), 73% in the test on Alternaria brassicae and 91% in test [1] (application rate 500 g/ha).
Turning to `CC(C)NC(=O)C1(C)CC(c2cc(Cl)cc(Cl)c2)=NO1` (stereo not drawn) [Example 6.165], the “Activity [%] (efficacy)” value in the test with Peronospora parasitica (application rate 500 g/ha) is 95%; in the test with Alternaria brassicae, 95%; in test [1] (application rate 500 g/ha), 100%; in the test with Botrytis cinerea (application rate 500 g/ha), 93%.
With `CC(C)NC(=O)C1(C)CC(c2cccc(N)c2)=NO1` (stereo not drawn) [Example 6.183], in the test on Sphaerotheca fuliginea (application rate 500 g/ha), the “Activity [%] (efficacy)” value is on record as 98%.
As to `CC(C)NC(=O)C1(C)CC(c2cc(Cl)cc(C(F)(F)F)c2)=NO1` (stereo not drawn) [Example 6.188], the “Activity [%] (efficacy)” value in the test on Alternaria brassicae worked out at 73%; in test [1] (application rate 500 g/ha), 100%; with Botrytis cinerea (application rate 500 g/ha), 86%.
As to `CC(C)NC(=O)C1(C)CC(c2cc(Cl)cc(OCC(F)(F)F)c2)=NO1` (stereo not drawn) [Example 6.193], the entries for the “Activity [%] (efficacy)” value (with Sphaerotheca fuliginea (application rate 500 g/ha); in test [1] (application rate 500 g/ha)) were 85% and 95%, respectively.
For the molecule `CC1(C(=O)NCC(F)(F)F)CC(c2cc(Cl)cc(Cl)c2)=NO1` (stereo not drawn) [Example 6.377], the “Activity [%] (efficacy)” value is listed as 77% in the test with Alternaria brassicae and 100% in test [1] (application rate 500 g/ha).
In the case of `CC1(C(=O)NCC2CC2)CC(c2cc(Cl)cc(Cl)c2)=NO1` (stereo not drawn) [Example 6.431], the “Activity [%] (efficacy)” value is reported as 71% in the test on Peronospora parasitica (application rate 500 g/ha), 77% with Alternaria brassicae and 100% in test [1] (application rate 500 g/ha).
In the case of `CCC1(C(=O)NCC(F)(F)F)CC(c2cc(Cl)cc(Cl)c2)=NO1` (stereo not drawn) [Example 7.359], the “Activity [%] (efficacy)” value in the test on Alternaria brassicae is given as 86%; in test [1] (application rate 500 g/ha) it was 100%.
